Assay results published in patent US20020120102A1, “Use of dendroaspin as a scaffold for non-dendroaspin domains” (priority 2000, published 2002).
Ends that are not written are not given here.

System: washed platelets
Test: ADP-induced platelet aggregation (light transmission)
Format: cell-based
Conditions: 10 μM ADP, 1.67 mg/ml fibrinogen, washed human platelets
Experimental: Measurement of platelet aggregation—Platelet aggregation was measured by the increase in light transmission as described previously (Lu et al. (1993), supra; Lu et al. (1994) Biochem. J. 304, 929-936). Briefly, platelet rich plasma (PRP) was prepared from citrated human blood, obtained from healthy individuals, by centrifugation at 200×g for 15 min. Washed platelets were prepared from PRP and resuspended in adhesion/aggregation buffer (145 mM NaCl, 5 mM KCl, 1 mM MgCl2, 2 mM CaCl2, 10 mM glucose, 3.5 mg/ml BSA and 10 mM HEPES, pH 7.35) and adjusted to a count of 3×10^8/ml. Platelet aggregation (320 μl incubations) was induced with 10 μM ADP in the presence of 1.67 mg/ml fibrinogen and measured using a Payton Dual-Aggregometer linked to a chart recorder.

## KGD-dendroaspin: dendroaspin scaffold in which the native RGD motif is replaced by KGD; recombinant, expressed in E. coli (RICYNHLGTKPPTTETCQEDSCYKNIWTFDNIIRRGCGCFTPKGDMPGPYCCESDKCNL; ends and bridges not checked; cysteine pairing not given here)
  inhibition of ADP-induced platelet aggregation: potent inhibition
